Test results: US9139523B2, “5-HT2B receptor antagonists” (Janssen Pharmaceutica, NV, priority 2010, dated 2015)
Like-named read-outs stand apart in the source and are kept apart here.

Assays:
Format in all cases: in vivo
[1] = Cardiovascular effects in the anaesthetized guinea-pig; settings: female, plasma, iv, guinea pig, end of 5-min i.v. infusion; for concentration at 5 min: read-out: Median plasma level; for Cmax: read-out: Median plasma level (Cmax)
Method: (§1) Female guinea-pigs were anesthetized with sodium pentobarbital (66 mg/kg i.p.) followed by a continuous i.v. infusion of 6 mg/h of sodium pentobarbital and prepared for measurements of the surface electrocardiogram (ECG), heart rate and mean arterial blood pressure (see De Clerck et al, Fundam. Clin. Pharm.; 2002; 16: 125-140). Compound (−)-17 was dissolved in 20% hydroxypropyl-cyclodextrin with NaOH, HCl and mannitol in pyrogen-free water and administered intravenously (0.5 ml/kg) in increasing doses (0.16, 0.32, 0.64, 1.25, 2.5 and 5 mg/kg) over a period of 5 min at 15-min intervals. Plasma concentrations of Compound (−)-17 were measured at the end of each infusion. Corresponding volumes of vehicle were administered according to the same protocol in a second group of animals.

[2] = system: anesthetized guinea-pig; experiment: as above
Method: as §1

[3] = Pharmacokinetic evaluation in the rat; settings: male Sprague Dawley rat
Method: For intravenous (i.v.) administration, Compound (−)-17 was dissolved in saline containing 20% (w/v) hydroxy-propyl-beta-cyclodextrin (HPbCD) at a concentration of 1 mg/mL and administered (2.5 mL/kg) to male Sprague Dawley rats (n=1) as a bolus via a saphenous vein at a dose level of 2.5 mg/kg. For oral (p.o.) administration, Compound (−)-17 was dissolved in water containing 20% (w/v) HPbCD at a concentration of 1 mg/mL and administered (10 mL/kg) to male Sprague Dawley rats (n=3) via gavage at a dose level of 10 mg/kg. Blood samples were collected via a tail vein at serial time points up to 24 h after dosing. Plasma was obtained by centrifugation and stored at −20° C. prior to analysis. Analysis was performed using liquid chromatography (LC) with tandem mass spectrometric detection (MS/MS) in positive ion mode. Compound (−)-17 was eluted from a reversed phase column with a gradient of acetonitrile and water containing 0.1% (v/v) formic acid. At the time of analysis plasma samples (50 uL) were thawed and […] with at least three volumes of acetonitrile and centrifuged. Aliquots of the supernatant were injected onto a reversed phase UPLC column and analysed via electrospray Mass Spectrometry. Calibration standards and quality controls, analysed before and after the samples, were prepared in rat plasma at the same time as the study samples. The accuracy (intra branch accuracy from independent QC samples) was between 85% and 115% of the nominal value over the entire concentration range. Non-compartmental pharmacokinetic analysis of the plasma concentration-time curves was performed using WinNonLin to provide estimates of the plasma clearance (CLp), volume of distribution at steady-state (Vss), terminal phase elimination half-life (t½) and oral bioavailability (F), the results are summarised in Table 8.

[4] = guinea pig i.v. 0.16 mg/kg @ 2′
[5] = guinea pig i.v. 0.16 mg/kg @ 5′
[6] = guinea pig i.v. 0.16 mg/kg @ 15′
[7] = guinea pig i.v. 0.32 mg/kg @ 2′
[8] = guinea pig i.v. 0.32 mg/kg @ 5′
[9] = guinea pig i.v. 0.32 mg/kg @ 15′
[10] = guinea pig i.v. 0.64 mg/kg @ 2′
[11] = guinea pig i.v. 0.64 mg/kg @ 5′
[12] = guinea pig i.v. 0.64 mg/kg @ 15′
[13] = guinea pig i.v. 1.25 mg/kg @ 2′
[14] = guinea pig i.v. 1.25 mg/kg @ 5′
[15] = guinea pig i.v. 1.25 mg/kg @ 15′
[16] = guinea pig i.v. 2.5 mg/kg @ 15′

COc1cc(N)c(Cl)cc1C(=O)NC1CCN(CCCOc2ccc(F)cc2)CC1(F)F (single isomer, unassigned) [Compound (−)-17, 4-amino-5-chloro-N-{3,3-difluoro-1-[3-(4-fluorophenoxy)-propyl]-piperidin-4-yl}-2-methoxybenzamide]
6%: MBP, percentage change relative to baseline [2, 7] | MBP, percentage change relative to baseline [2, 10] | PQ, percentage change relative to baseline [2, 14] | QT, percentage change relative to baseline [2, 14] | PQ, percentage change relative to baseline [2, 15] | QT, percentage change relative to baseline ([2]; guinea pig i.v. 2.5 mg/kg @ 2′) | QT, percentage change relative to baseline ([2]; guinea pig i.v. 2.5 mg/kg @ 5′) | QT, percentage change relative to baseline [2, 16] | PQ, percentage change relative to baseline ([2]; guinea pig i.v. 5 mg/kg @ 2′) | PQ, percentage change relative to baseline ([2]; guinea pig i.v. 5 mg/kg @ 5′)
−6%: HR, percentage change relative to baseline ([2]; guinea pig i.v. 2.5 mg/kg @ 5′)
7%: QT, percentage change relative to baseline [2, 10] | PQ, percentage change relative to baseline ([2]; guinea pig i.v. 2.5 mg/kg @ 2′) | PQ, percentage change relative to baseline ([2]; guinea pig i.v. 2.5 mg/kg @ 5′) | QT, percentage change relative to baseline ([2]; guinea pig i.v. 5 mg/kg @ 2′)
3%: QT, percentage change relative to baseline [2, 8] | QTc B, percentage change relative to baseline [2, 9] | QTc B, percentage change relative to baseline [2, 15] | QTc B, percentage change relative to baseline ([2]; guinea pig i.v. 2.5 mg/kg @ 5′) | QT, percentage change relative to baseline ([2]; guinea pig i.v. 5 mg/kg @ 5′)
1%: PQ, percentage change relative to baseline [2, 5] | QT, percentage change relative to baseline [2, 6] | QTc B, percentage change relative to baseline [2, 6] | QTc B, percentage change relative to baseline [2, 7] | QTc B, percentage change relative to baseline [2, 8]
13%: MBP, percentage change relative to baseline [2, 11]
started to increase: mean arterial blood pressure ([2]; guinea pig, from 2.5 mg/kg i.v. onwards)
66 min: half-life ([3]; plasma, intravenous, 2.5 mg/kg, read-out: t½ (converted))
19%: F ([3]; p.o. 10 mg/kg vs i.v. 2.5 mg/kg)
15%: MBP, percentage change relative to baseline [2, 14]
9%: MBP, percentage change relative to baseline [2, 15]
−7%: HR, percentage change relative to baseline [2, 13] | HR, percentage change relative to baseline [2, 14]
5%: PQ, percentage change relative to baseline [2, 10] | PQ, percentage change relative to baseline [2, 11] | QT, percentage change relative to baseline [2, 11] | PQ, percentage change relative to baseline [2, 13] | QTc B, percentage change relative to baseline [2, 16] | QTc B, percentage change relative to baseline ([2]; guinea pig i.v. 5 mg/kg @ 2′)
398 ng/mL: concentration at 5 min ([1]; dose 0.16 mg/kg (increasing doses, 15-min intervals))
6320 ng/mL: Cmax ([1]; dose 2.5 mg/kg (increasing doses, 15-min intervals))
12000 ng/mL: Cmax ([1]; dose 5 mg/kg (increasing doses, 15-min intervals; total dose 9.87 mg/kg))
2%: PQ, percentage change relative to baseline [2, 7] | MBP, percentage change relative to baseline [2, 8] | QTc B, percentage change relative to baseline [2, 11] | QTc B, percentage change relative to baseline [2, 14] | QT, percentage change relative to baseline [2, 15] | QTc B, percentage change relative to baseline ([2]; guinea pig i.v. 5 mg/kg @ 5′)
30 min: Tmax ([3]; plasma, po, p.o. 10 mg/kg)
0%: PQ, percentage change relative to baseline [2, 4] | QT, percentage change relative to baseline [2, 4] | HR, percentage change relative to baseline [2, 5] | QRS, percentage change relative to baseline [2, 6] | QT, percentage change relative to baseline [2, 7] | QRS, percentage change relative to baseline [2, 8] | QRS, percentage change relative to baseline [2, 9] | QRS, percentage change relative to baseline [2, 10] | QRS, percentage change relative to baseline [2, 14] | HR, percentage change relative to baseline [2, 15] | QRS, percentage change relative to baseline [2, 16] | QRS, percentage change relative to baseline ([2]; guinea pig i.v. 5 mg/kg @ 5′)
−2%: QRS, percentage change relative to baseline [2, 4] | QRS, percentage change relative to baseline [2, 5] | HR, percentage change relative to baseline [2, 6] | QRS, percentage change relative to baseline [2, 7] | HR, percentage change relative to baseline [2, 11] | QRS, percentage change relative to baseline [2, 13] | QRS, percentage change relative to baseline ([2]; guinea pig i.v. 5 mg/kg @ 2′)
8%: QT, percentage change relative to baseline [2, 12] | QT, percentage change relative to baseline [2, 13] | MBP, percentage change relative to baseline [2, 16] | PQ, percentage change relative to baseline [2, 16]
21%: MBP, percentage change relative to baseline ([2]; guinea pig i.v. 2.5 mg/kg @ 5′)
46 mL/min/kg: clearance ([3]; plasma, iv, i.v. 2.5 mg/kg (n=1))
−5%: HR, percentage change relative to baseline [2, 10] | QRS, percentage change relative to baseline [2, 11] | HR, percentage change relative to baseline [2, 12] | MBP, percentage change relative to baseline [2, 12] | HR, percentage change relative to baseline ([2]; guinea pig i.v. 2.5 mg/kg @ 2′)
−4%: HR, percentage change relative to baseline [2, 8] | HR, percentage change relative to baseline [2, 9] | HR, percentage change relative to baseline [2, 16]
3.1 L/kg: Vd ([3]; plasma, iv, i.v. 2.5 mg/kg (n=1), read-out: Vss)
−3%: MBP, percentage change relative to baseline [2, 6] | MBP, percentage change relative to baseline [2, 9] | QRS, percentage change relative to baseline [2, 12] | QRS, percentage change relative to baseline [2, 15] | QRS, percentage change relative to baseline ([2]; guinea pig i.v. 2.5 mg/kg @ 2′) | QRS, percentage change relative to baseline ([2]; guinea pig i.v. 2.5 mg/kg @ 5′) | HR, percentage change relative to baseline ([2]; guinea pig i.v. 5 mg/kg @ 2′) | HR, percentage change relative to baseline ([2]; guinea pig i.v. 5 mg/kg @ 5′)
686 ± 254 ng·h/mL: AUC(0-t) ([3]; plasma, po, p.o. 10 mg/kg)
−1%: HR, percentage change relative to baseline [2, 4] | QTc B, percentage change relative to baseline [2, 4] | QT, percentage change relative to baseline [2, 5] | QTc B, percentage change relative to baseline [2, 5] | HR, percentage change relative to baseline [2, 7]
119 ± 37 ng/mL: Cmax ([3]; plasma, po, p.o. 10 mg/kg)
873 ng/mL: concentration at 5 min ([1]; dose 0.32 mg/kg (increasing doses, 15-min intervals))
4%: MBP, percentage change relative to baseline [2, 4] | PQ, percentage change relative to baseline [2, 6] | PQ, percentage change relative to baseline [2, 8] | PQ, percentage change relative to baseline [2, 9] | QT, percentage change relative to baseline [2, 9] | QTc B, percentage change relative to baseline [2, 10] | PQ, percentage change relative to baseline [2, 12] | QTc B, percentage change relative to baseline [2, 12] | MBP, percentage change relative to baseline [2, 13] | QTc B, percentage change relative to baseline [2, 13] | QTc B, percentage change relative to baseline ([2]; guinea pig i.v. 2.5 mg/kg @ 2′)
1820 ng/mL: concentration at 5 min ([1]; dose 0.64 mg/kg (increasing doses, 15-min intervals))
no relevant effect: effect on heart rate, duration of PQ, QRS, QT and QTcB intervals, ECG morphology ([2]; guinea pig, 0.16 up to 5 mg/kg i.v., relative to vehicle)
3330 ng/mL: concentration at 5 min ([1]; dose 1.25 mg/kg (increasing doses, 15-min intervals))
